According to patent publication US20230339970A1, “CASEIN KINASE 1 DELTA MODULATORS” (priority 2020, published 2023):

How the values were obtained:
[1] = target: T1, human CSNK1D (Homo sapiens, UniProt P48730); assay: Whole Cell nBRET CSNK1D Binding Assay; conditions: living CHO cells stably expressing human CSNK1D tagged with nanoluciferase; NanoBret tracer 130 nM; 2 hours at 37 C
T1 construct: expressed in transfected cells

[2] = target: T2, human recombinant GST cleaved CSNK1D (Homo sapiens, UniProt P48730); assay: Purified Enzyme Assay (ADP-Glo CSNK1D Kinase Assay); type: biochemical; conditions: 2 nM CSNK1D; peptide substrate 150 μM; ATP 20 μM; 45 minutes at room temperature
T2 construct: GST (cleaved yes); purchased University of Dundee clone DU 19064
T2 sequence (P48730 whole entry): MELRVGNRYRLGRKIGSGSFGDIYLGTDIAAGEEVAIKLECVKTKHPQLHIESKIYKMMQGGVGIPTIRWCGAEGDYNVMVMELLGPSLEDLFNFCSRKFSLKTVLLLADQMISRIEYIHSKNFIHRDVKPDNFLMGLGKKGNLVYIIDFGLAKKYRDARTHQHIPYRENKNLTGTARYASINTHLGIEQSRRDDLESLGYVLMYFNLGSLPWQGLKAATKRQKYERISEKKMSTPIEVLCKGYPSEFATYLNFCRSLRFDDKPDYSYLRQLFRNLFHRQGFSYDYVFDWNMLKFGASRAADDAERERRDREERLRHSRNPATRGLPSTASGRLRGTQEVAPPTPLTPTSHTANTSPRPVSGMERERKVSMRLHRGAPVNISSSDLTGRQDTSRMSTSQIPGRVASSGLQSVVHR
Method in brief: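 GST-cleaved human recombinant CSNK1D phosphorylates peptide PLSRTL-pS-VASLPGL with ATP; compounds added in dose-response, 45 min at room temperature. ADP formed measured by ADP-Glo luminescence and converted to percent activity.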

T1 sequence (P48730 whole entry): as above

Row | IC50 [1] | IC50 [2] | SMILES
1 | 11 nM | 1 nM | Cc1cc(-c2c(-c3ccc(F)cc3)nn3c2OC[C@H](C)C3)c2cn[nH]c2n1 (single isomer, unassigned) [Example 194, (*R)-2-(4-Fluorophenyl)-6-methyl-3-(6-methyl-1H-pyrazolo[3,4-b]pyridin-4-yl)-6,7-dihydro-5H-pyrazolo[5,1-b][1,3]oxazine]
2 | 75 nM | 8 nM | Nc1cc(-c2c(-c3ccc(F)cc3)nn3c2CCC(F)(F)C3)ccn1 [Example 41, 4-(6,6-Difluoro-2-(4-fluorophenyl)-4,5,6,7-tetrahydropyrazolo[1,5-a]pyridin-3-yl)pyridin-2-amine]
3 | 30 nM | 4 nM | [2H]C([2H])([2H])C1(C([2H])([2H])[2H])Cn2nc(-c3ccc(F)cn3)c(-c3ccnc4[nH]nc(Cl)c34)c2CO1 [Example 400, 3-(3-Chloro-1H-pyrazolo[3,4-b]pyridin-4-yl)-2-(5-fluoropyridin-2-yl)-6,6-bis(methyl-d3)-6,7-dihydro-4H-pyrazolo[5,1-c][1,4]oxazine]
4 | 827 nM | 21 nM | CC1(C)Cn2nc(-c3cnco3)c(-c3ccnc4[nH]ncc34)c2CO1 [Example 126, 6,6-Dimethyl-2-(oxazol-5-yl)-3-(1H-pyrazolo[3,4-b]pyridin-4-yl)-6,7-dihydro-4H-pyrazolo[5,1-c][1,4]oxazine]
5 | 218 nM | 21 nM | CC1COc2c(-c3ccnc4ccsc34)c(-c3ccc(F)cn3)nn2C1 (stereo not shown) [Example 195, 2-(5-Fluoropyridin-2-yl)-6-methyl-3-(thieno[3,2-b]pyridin-7-yl)-6,7-dihydro-5H-pyrazolo[5,1-b][1,3]oxazine]
6 | 2890 nM | 34 nM | C[C@@H]1C[C@H](C)n2nc(-c3ccc(F)cn3)c(-c3ccnc4[nH]ncc34)c2O1 (single isomer, unassigned) [Example 203, (5*R,7*S)-2-(5-Fluoro-2-pyridyl)-5,7-dimethyl-3-(1H-pyrazolo[3,4-b]pyridin-4-yl)-6,7-dihydro-5H-pyrazolo[5,1-b][1,3]oxazine]
7 | 176 nM | 14 nM | [2H]C([2H])([2H])C1(C([2H])([2H])[2H])CC(O)c2c(-c3ccnc4[nH]ncc34)c(-c3ccc(F)cn3)nn2C1 (stereo not shown) [Example 366, 2-(5-Fluoropyridin-2-yl)-6,6-bis(methyl-d3)-3-(1H-pyrazolo[3,4-b]pyridin-4-yl)-4,5,6,7-tetrahydropyrazolo[1,5-a]pyridin-4-ol]
8 | 581 nM | 30 nM | CC1COc2c(-c3ccn4nccc4c3)c(-c3ccc(F)cn3)nn2C1 (stereo not shown) [Example 443, 2-(5-Fluoropyridin-2-yl)-6-methyl-3-(pyrazolo[1,5-a]pyridin-5-yl)-6,7-dihydro-5H-pyrazolo[5,1-b][1,3]oxazine]
9 | 65 nM | 6 nM | Fc1ccc(-c2nn3c(c2-c2c(F)cnc4[nH]ncc24)OC[C@H]2C[C@H]2C3)nc1 (stereo in doubt) [Example 481, (5a*S,6a*R)-3-(5-Fluoro-1H-pyrazolo[3,4-b]pyridin-4-yl)-2-(5-fluoropyridin-2-yl)-5a,6,6a,7-tetrahydro-5H-cyclopropa[e]pyrazolo[5,1-b][1,3]oxazepine]
10 | 32 nM | 4 nM | Fc1ccc(-c2nn3c(c2-c2ccnc4[nH]ncc24)C[C@@H]2C[C@@H]23)nc1 [Example 26, (4aS,5aS)-2-(5-Fluoropyridin-2-yl)-3-(1H-pyrazolo[3,4-b]pyridin-4-yl)-4,4a,5,5a-tetrahydrocyclopropa[4,5]pyrrolo[1,2-b]pyrazole]
11 | 24 nM | 2 nM | [2H]C([2H])([2H])[C@]1(C([2H])([2H])F)CCc2c(-c3c(F)cnc4[nH]ncc34)c(-c3ccc(F)cn3)nn2C1 (single isomer, unassigned) [Example 295, (*S)-5-Fluoro-4-(6-(fluoromethyl-d2)-2-(5-fluoropyridin-2-yl)-6-(methyl-d5)-4,5,6,7-tetrahydropyrazolo[1,5-a]pyridin-3-yl)-1H-pyrazolo[3,4-b]pyridine]
12 | 228 nM | 10 nM | Fc1ccc(-c2nn3c(c2-c2c(F)cnc4[nH]ncc24)OC[C@@H]2C[C@@H]2C3)nc1 (stereo in doubt) [Example 480, (5a*R,6a*S)-3-(5-Fluoro-1H-pyrazolo[3,4-b]pyridin-4-yl)-2-(5-fluoropyridin-2-yl)-5a,6,6a,7-tetrahydro-5H-cyclopropa[e]pyrazolo[5,1-b][1,3]oxazepine]
13 | 93 nM | 10 nM | CC1(C)Cn2nc(-c3ccc(F)cn3)c(-c3cc(N)n4nccc4c3)c2CO1 [Example 380, 5-[2-(5-Fluoro-2-pyridyl)-6,6-dimethyl-4,7-dihydropyrazolo[5,1-c][1,4]oxazin-3-yl]pyrazolo[1,5-a]pyridin-7-amine]
14 | 11 nM | 2 nM | [2H]C([2H])([2H])C1(C([2H])([2H])[2H])Cn2nc(-c3ccc(F)cn3)c(-c3c(F)cnc4[nH]ccc34)c2CO1 [Example 397, 3-(5-Fluoro-1H-pyrrolo[2,3-b]pyridin-4-yl)-2-(5-fluoropyridin-2-yl)-6,6-bis(methyl-d3)-6,7-dihydro-4H-pyrazolo[5,1-c][1,4]oxazine]
15 | 11 nM | 5 nM | Cc1cc(-c2c(-c3ccc(F)cn3)nn3c2OCC2(CC2)C3)c2c(Cl)n[nH]c2n1 [Example 464, 3′-(3-Chloro-6-methyl-1H-pyrazolo[3,4-b]pyridin-4-yl)-2′-(5-fluoropyridin-2-yl)-5′H,7′H-spiro[cyclopropane-1,6′-pyrazolo[5,1-b][1,3]oxazine]]
16 | 1570 nM | 50 nM | CC1(C)Cn2nc(-c3ccc(F)cn3)c(-c3ccn4ncnc4c3)c2CO1 [Example 385, 3-([1,2,4]Triazolo[1,5-a]pyridin-7-yl)-2-(5-fluoropyridin-2-yl)-6,6-dimethyl-6,7-dihydro-4H-pyrazolo[5,1-c][1,4]oxazine]
17 | 82 nM | 8 nM | Fc1ccc(-c2nn3c(c2-c2ccnc4[nH]ncc24)CC(F)(F)CC3)cc1 [Example 46, 4-(5,5-Difluoro-2-(4-fluorophenyl)-4,5,6,7-tetrahydropyrazolo[1,5-a]pyridin-3-yl)-1H-pyrazolo[3,4-b]pyridine]
18 | 72 nM | 8 nM | Cc1nc2[nH]ncc2c(-c2c(-c3ccc(F)cn3)nn3c2COC(C)(C)C3)c1F [Example 157, 3-(5-Fluoro-6-methyl-1H-pyrazolo[3,4-b]pyridin-4-yl)-2-(5-fluoro-2-pyridyl)-6,6-dimethyl-4,7-dihydropyrazolo[5,1-c][1,4]oxazine]
19 | 411 nM | 20 nM | C[C@@H]1CCc2c(-c3ccnc4[nH]ncc34)c(-c3ccc(F)cn3)nn21 [Example 20, 4-[(6R)-2-(5-Fluoro-2-pyridyl)-6-methyl-5,6-dihydro-4H-pyrrolo[1,2-b]pyrazol-3-yl]-1H-pyrazolo[3,4-b]pyridine]
20 | 3 nM | 2 nM | Cc1cc(-c2c(-c3ccc(F)cc3)nn3c2C[C@@]2(C3)CC2(F)F)c2cn[nH]c2n1 (single isomer, unassigned) [Example 252, (*S)-1′,1′-Difluoro-2-(4-fluorophenyl)-3-(6-methyl-1H-pyrazolo[3,4-b]pyridin-4-yl)spiro[4,6-dihydropyrrolo[1,2-b]pyrazole-5,2′-cyclopropane]]
21 | > 10000 nM | 4960 nM | Cc1nc2[nH]nc(C)c2c(-c2c(-c3ccc(F)cn3)nn3c2CC[C@@]2(C3)CC2(F)F)c1F (single isomer, unassigned) [Example 333, (*S)-2,2-Difluoro-3′-(5-fluoro-3,6-dimethyl-1H-pyrazolo[3,4-b]pyridin-4-yl)-2′-(5-fluoropyridin-2-yl)-4′,5′-dihydro-7′H-spiro[cyclopropane-1,6′-pyrazolo[1,5-a]pyridine]]
22 | 23 nM | 6 nM | Fc1ccc(-c2nn3c(c2-c2ccnc4[nH]ncc24)CCC2(C3)CC2(F)F)cc1 (single isomer, unassigned) [Example 326, (*S)-2,2-Difluoro-2′-(4-fluorophenyl)-3′-1H-pyrazolo[3,4-b]pyridin-4-yl)-4′,5′-dihydro-7′H-spiro[cyclopropane-1,6′-pyrazolo[1,5-a]pyridine]]
23 | 23 nM | < 0.5 nM | Fc1ccc(-c2nn3c(c2-c2ccnc4[nH]ncc24)OCC2(COC2)C3)cc1 [Example 210, 2-(4-Fluorophenyl)-3-(1H-pyrazolo[3,4-b]pyridin-4-yl)spiro[5,7-dihydropyrazolo[5,1-b][1,3]oxazine-6,3′-oxetane]]
24 | 87 nM | 17 nM | [2H]C([2H])([2H])[C@@]1(C(F)(F)F)Cn2nc(-c3ccc(F)cn3)c(-c3ccnc4[nH]nc(C)c34)c2CO1 (single isomer, unassigned) [Example 426, (*S)-2-(5-Fluoropyridin-2-yl)-6-(methyl-d3)-3-(3-methyl-1H-pyrazolo[3,4-b]pyridin-4-yl)-6-(trifluoromethyl)-6,7-dihydro-4H-pyrazolo[5,1-c][1,4]oxazine]
25 | 186 nM | 12 nM | C[C@@H]1CCn2nc(-c3ccc(F)cn3)c(-c3ccnc4[nH]ncc34)c2O1 (single isomer, unassigned) [Example 199, (*R)-2-(5-Fluoro-2-pyridyl)-5-methyl-3-(1H-pyrazolo[3,4-b]pyridin-4-yl)-6,7-dihydro-5H-pyrazolo[5,1-b][1,3]oxazine]
26 | 9 nM | 1 nM | Fc1ccc(-c2nn3c(c2-c2ccnc4[nH]ncc24)C2CC2C3)cc1 (racemic) [Example 275, (Racemic) 2-(4-Fluorophenyl)-3-(1H-pyrazolo[3,4-b]pyridin-4-yl)-3b,4,4a,5-tetrahydrocyclopropa[3,4]pyrrolo[1,2-b]pyrazole]
